From patent US11485736B2 (KSQ Therapeutics, Inc., priority 2018, dated 2022)
Read-outs that look alike come from different tables or passages of the source.

Tests used:
[1] = Liver microsomal stability, human liver microsomes; assay type: in vitro ADME; conditions: 1 μM compound, NADPH, read-out: t1/2 (min) in HLM
Description: (§1) Certain Compounds of the Disclosure were assessed for ADME metabolic stability in human liver microsomes (HLM) and rat liver microsomes (RLM).
(§2) Samples were prepared by adding 222.5 μL of a master solution (100 mM phosphate buffer and 1 mg/mL liver microsomes (HLM or RLM)) and 25 μL of a 10 mM NADPH solution to incubation plates, which were then warmed for 10 min. Each compound was separately dissolved in DMSO to prepare 10 mM stock solutions, which were then diluted to 100 μM with acetonitrile. A reaction was started by adding 2.5 μL of the 100 μM solution of each compound to separate incubation plates such that the final concentration of for each compound in each plate was 1 μM.
(§3) 25 μL aliquots of each sample were taken at 0.5, 5, 10, 15, 20 and 30 minutes, and the reaction was stopped by adding 5 volumes of cold acetonitrile with IS (100 nM alprazolam, 200 nM caffeine and 100 nM tolbutamide). The samples were then centrifuged at 3,220 G for 30 minutes, and 100 μL of the supernatant fluid was mixed with 100 μL of ultra-pure H2O.
(§4) The samples were then analyzed by LC-MS/MS. Peak areas were determined from extracted ion chromatograms. Slope values (k) were determined by linear regression of the natural logarithm of the remaining percentage of the compound vs. incubation time curve. […] The in vitro half-life (min) was converted into the in vitro intrinsic clearance (in vitro CLint, in μL/min/mg protein) using the following equation: […]

[2] = ADME solubility determination at pH 2.0 and pH 7.4; assay type: physicochemical; conditions: aqueous buffer, thermodynamic from solid, LC-MS/MS
Description: Certain Compounds of the Disclosure were assessed for ADME solubility at pH 2.0 and pH 7.4.
Stock solutions were prepared by adding each compound to DMSO at a concentration of 10 mM. Samples were prepared by adding 50 μL of each stock solution to separate vials. The vials were loaded onto a 96-well rack and dried. 500 μL of Phosphate Buffered Saline (PBS) pH 7.4 or PBS pH 2.0 were added into each vial. The vials were then shaken at 25° C. and 1,100 rpm for 24 hours.
After 24 hours, the vials were centrifuged at 3220 G and 25° C. for 30 minutes. The supernatant fluid was analyzed by LC-MS/MS against a standard of known concentration. The solubility of each sample was then calculated using the equation below:
[formula] where DF is the dilution factor.

[3] = Liver microsomal stability, rat liver microsomes; assay type: in vitro ADME; conditions: 1 μM compound, NADPH, read-out: t1/2 (min) in RLM
Description: as §1, §2, §3, §4

[4] = PBS pH 2.0, shaken at 25° C. for 24 hours, read-out: Solubility at pH 2.0
[5] = PBS pH 7.4, shaken at 25° C. for 24 hours, read-out: Solubility at pH 7.4
[6] = phosphate buffered saline, PBS pH 2.0, shaken at 25° C. for 24 hours, read-out: Solubility at pH 2.0
[7] = phosphate buffered saline, PBS pH 7.4, shaken at 25° C. for 24 hours, read-out: Solubility at pH 7.4

| Structure (SMILES) | half-life at 1 μM [1] | solubility at 24 h [2, 4] | solubility at 24 h [2, 5] | half-life at 1 μM [3] | solubility at 24 h [2, 6] | solubility at 24 h [2, 7] |
| --- | --- | --- | --- | --- | --- | --- |
| CCn1cc(C(F)(F)F)nc1-c1ccc(Cn2ncc3cnc(-c4c(OC)ncnc4C4CC4)nc32)cc1F [Example 18] | > 25 min | < 10 µM | < 10 µM | > 25 min |  |  |
| COc1ncnc(C2CC2)c1-c1ncc2cnn(Cc3ccc(-c4nc(C(F)(F)F)cn4C(C)C)c(F)c3)c2n1 [Example 19] | > 25 min | > 10 µM | > 10 µM | > 25 min |  |  |
| COc1ncnc(C2CC2)c1-c1ncc2cnn(Cc3ccc(-c4nc(C(F)(F)F)cn4C)cc3F)c2n1 [Example 20] | > 25 min | < 10 µM | < 10 µM | > 25 min |  |  |
| CSc1cccc(C)c1-c1ncc2cnn(Cc3ccc(-c4nc(C(F)(F)F)cn4C)cc3)c2n1 [Example 21] | < 25 min | < 10 µM | < 10 µM | < 25 min |  |  |
| Cc1cc(C(F)(F)F)nn1-c1ccc(Cn2ncc3cnc(-c4ccccc4C(C)C)nc32)cc1 [Example 23] | > 25 min | < 10 µM | < 10 µM | < 25 min |  |  |
| CC(C)c1ccccc1-c1ncc2cnn(C(C)c3ccc(-c4nc(C(F)(F)F)cn4C)cc3)c2n1 (stereo not drawn) [Example 24] | < 25 min | < 10 µM | < 10 µM | < 25 min |  |  |
| Cc1nn(Cc2ccc(-c3nc(C(F)(F)F)cn3C)cc2)c2nc(-c3ccccc3C(C)C)ncc12 [Example 25] | < 25 min | < 10 µM | < 10 µM | < 25 min |  |  |
| Cc1cc(C(F)(F)F)nn1-c1ccc(Cn2ncc3cnc(-c4cccnc4C(C)C)nc32)cc1 [Example 26] | > 25 min | > 10 µM | < 10 µM | < 25 min |  |  |
| COc1ncnc(C2CC2)c1-c1ncc2cnn(Cc3ccc(-n4nc(C(F)(F)F)cc4C)cc3)c2n1 [Example 27] | > 25 min | < 10 µM | < 10 µM | > 25 min |  |  |
| COc1ncnc(C2CC2)c1-c1nc(OC)c2cnn(Cc3ccc(-n4nc(C(F)(F)F)cc4C)cc3)c2n1 [Example 28] | > 25 min | < 10 µM | < 10 µM | > 25 min |  |  |
| COc1ncnc(C2CC2)c1-c1ncc2cnn(Cc3ccc(-n4nc(C(F)(F)F)cc4C(C)C)cc3)c2n1 [Example 29] | > 25 min | < 10 µM | < 10 µM | > 25 min |  |  |
| COc1ncnc(C2CC2)c1-c1ncc2cnn(Cc3ccc(-n4nc(C(F)(F)F)cc4-c4ccco4)cc3)c2n1 [Example 30, 6-(4-cyclopropyl-6-methoxypyrimidin-5-yl)-1-(4-(5-(furan-2-yl)-3-(trifluoromethyl)-1H-pyrazol-1-yl)benzyl)-1H-pyrazolo[3,4-d]pyrimidine] | < 25 min | < 10 µM | < 10 µM | < 25 min |  |  |
| Cc1cc(C(F)F)nn1-c1ccc(Cn2ncc3cnc(-c4cccnc4C(C)C)nc32)cc1 [Example 32] | < 25 min | > 10 µM | < 10 µM | < 25 min |  |  |
| COc1ncnc(C)c1-c1ncc2cnn(Cc3ccc(-c4nc(C(F)(F)F)cn4C)cc3)c2n1 [Example 33] | > 25 min | > 10 µM | > 10 µM | > 25 min |  |  |
| COc1ncnc(C2CC2)c1-c1ncc2cnn(Cc3ccc(-c4cn(C(C)C)c(C(F)(F)F)n4)cc3)c2n1 [Example 34] | > 25 min | < 10 µM | < 10 µM | > 25 min |  |  |
| COc1cc(Cn2ncc3cnc(-c4c(OC)ncnc4C4CC4)nc32)ccc1-c1cn(C)c(C(F)(F)F)n1 [Example 35] | > 25 min | < 10 µM | < 10 µM | > 25 min |  |  |
| COc1ncnc(C2CC2)c1-c1ncc2cnn(Cc3ccc(-n4nc(C(F)(F)F)cc4OC)cc3)c2n1 [Example 37] | > 25 min | < 10 µM | < 10 µM | > 25 min |  |  |
| COc1ncnc(C2CC2)c1-c1ncc2cnn(Cc3ccc(-n4nc(C(F)(F)F)cc4SC)cc3)c2n1 [Example 38] | < 25 min | < 10 µM | < 10 µM | < 25 min |  |  |
| CCOc1ncnc(C2CC2)c1-c1ncc2cnn(Cc3ccc(-c4nc(C(F)(F)F)cn4C)cc3)c2n1 [Example 39] | < 25 min |  |  | < 25 min | > 10 µM | < 10 µM |
| CC(C)Oc1ncnc(C2CC2)c1-c1ncc2cnn(Cc3ccc(-c4nc(C(F)(F)F)cn4C)cc3)c2n1 [Example 40] | < 25 min | > 10 µM | < 10 µM | < 25 min |  |  |
| COCCOc1ncnc(C2CC2)c1-c1ncc2cnn(Cc3ccc(-c4nc(C(F)(F)F)cn4C)cc3)c2n1 [Example 42] | < 25 min | > 10 µM | > 10 µM | < 25 min |  |  |

Continued, values first:

| half-life at 1 μM [1] | solubility at 24 h [2, 4] | solubility at 24 h [2, 5] | half-life at 1 μM [3] | solubility at 24 h [2, 6] | solubility at 24 h [2, 7] | Structure (SMILES) |
| --- | --- | --- | --- | --- | --- | --- |
| < 25 min | < 10 µM | > 10 µM | < 25 min |  |  | COCCOc1ncnc(C2CC2)c1-c1ncc2cnn(Cc3ccc(-n4nc(C(F)(F)F)cc4C)cc3)c2n1 [Example 43] |
| < 25 min | < 10 µM | < 10 µM | < 25 min |  |  | Cc1cnn(C(C)C)c1-c1ncc2cnn(Cc3ccc(-n4nc(C(F)(F)F)cc4C)cc3)c2n1 [Example 44] |
| < 25 min |  |  | < 25 min | < 10 µM | < 10 µM | Cc1ncnc(C(C)C)c1-c1ncc2cnn(Cc3ccc(-n4nc(C(F)(F)F)cc4C)cc3)c2n1 [Example 45] |
| < 25 min | < 10 µM | < 10 µM | < 25 min |  |  | CSc1ncnc(C)c1-c1ncc2cnn(Cc3ccc(-n4nc(C(F)(F)F)cc4C)cc3)c2n1 [Example 46] |
| < 25 min | > 10 µM | > 10 µM | < 25 min |  |  | COCCOc1ncnc(C)c1-c1ncc2cnn(Cc3ccc(-n4nc(C(F)(F)F)cc4C)cc3)c2n1 [Example 47] |
| > 25 min | > 10 µM | < 10 µM | > 25 min |  |  | COc1ncnc(C)c1-c1ncc2cnn(Cc3ccc(-n4nc(C(F)(F)F)cc4C)cc3)c2n1 [Example 48] |
| > 25 min | < 10 µM | < 10 µM | > 25 min |  |  | Cc1cc(C(F)(F)F)nn1-c1ccc(Cn2ncc3cnc(-c4cccnc4C#N)nc32)cc1 [Example 49] |
| > 25 min | < 10 µM | < 10 µM | > 25 min |  |  | COc1ncnc(C2CC2)c1-c1ncc2cnn(Cc3ccc(-n4nc(C(F)F)cc4C)cc3)c2n1 [Example 50] |
| > 25 min | > 10 µM | < 10 µM | > 25 min |  |  | CCn1cc(C(F)(F)F)nc1-c1ccc(Cn2ncc3cnc(-c4c(OC)ncnc4C4CC4)nc32)cc1 [Example 51] |
| > 25 min | < 10 µM | < 10 µM | < 25 min |  |  | CCn1cc(C(F)(F)F)nc1-c1ccc(Cn2ncc3c(OC)nc(-c4c(OC)ncnc4C4CC4)nc32)cc1 [Example 52] |
| > 25 min | < 10 µM | < 10 µM | > 25 min |  |  | CCn1cc(C(F)(F)F)nc1-c1ccc(Cn2ncc3c(C)nc(-c4c(OC)ncnc4C4CC4)nc32)cc1 [Example 53] |
| < 25 min | < 10 µM | < 10 µM | < 25 min |  |  | CCn1cc(C(F)(F)F)nc1-c1ccc(Cn2ncc3cnc(-c4c(OCCF)ncnc4C4CC4)nc32)cc1 [Example 54] |
